Data: US11370798B2 (Vertex Pharmaceuticals Incorporated, priority 2012, dated 2022)

System: HCT116 colorectal cancer cells
Experiment: Cisplatin sensitization assay (96 h cell viability MTS);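 note: Test-compound concentration that lowers the Cisplatin IC50 by a set fold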
Assay type: cell-based
Settings: compound and Cisplatin added simultaneously, Cisplatin sensitization value
How it was run: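 Viability read by MTS (1 h at 37° C) after 96 h co-exposure at 37° C, 5% CO2. Test compound and cisplatin were dosed simultaneously in a full concentration matrix, each 2-fold serially diluted from 10 μM final; sensitization values binned in μM.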

| Structure (SMILES) | Cisplatin Sensitization Assay |
| --- | --- |
| N#CCc1cnc2c(C(=O)Nc3cnccc3OCCO)c(N)nn2c1 [I-O-33, 2-amino-6-(cyanomethyl)-N-(4-(2-hydroxyethoxy)pyridin-3-yl)pyrazolo[1,5-a]pyrimidine-3-carboxamide] | ++ (Cisplatin sensitization value>0.02 μM but <0.2 μM) |
| CN1CCN(C(=O)C2CCN(c3c(F)cncc3NC(=O)c3c(N)nn4cc(F)cnc34)CC2)CC1 [I-G-4, 2-amino-6-fluoro-N-(5-fluoro-4-(4-(4-methylpiperazine-1-carbonyl)piperidin-1-yl)pyridin-3-yl)pyrazolo[1,5-a]pyrimidine-3-carboxamide] | +++ (Cisplatin sensitization value of <0.02 μM) |
| Nc1nn2cc(Cl)cnc2c1C(=O)Nc1cnccc1N1CCN(C2CC2)CC1 [I-N-64, 2-amino-6-chloro-N-(4-(4-cyclopropylpiperazin-1-yl)pyridin-3-yl)pyrazolo[1,5-a]pyrimidine-3-carboxamide] | +++ (Cisplatin sensitization value of <0.02 μM) |
| Nc1nn2cc(F)cnc2c1C(=O)Nc1cnccc1N1CCOCC1 [I-N-141, 2-amino-6-fluoro-N-(4-morpholinopyridin-3-yl)pyrazolo[1,5-a]pyrimidine-3-carboxamide] | +++ (Cisplatin sensitization value of <0.02 μM) |
| Nc1nn2cc(Cl)cnc2c1C(=O)Nc1cnccc1O[C@H]1CCOC1 [I-O-58, (S)-2-amino-6-chloro-N-(4-((tetrahydrofuran-3-yl)oxy)pyridin-3-yl)pyrazolo[1,5-a]pyrimidine-3-carboxamide] | +++ (Cisplatin sensitization value of <0.02 μM) |
| N#CCc1cnc2c(C(=O)Nc3cnccc3OC3CCCC3)c(N)nn2c1 [I-O-43, 2-amino-6-(cyanomethyl)-N-(4-(cyclopentyloxy)pyridin-3-yl)pyrazolo[1,5-a]pyrimidine-3-carboxamide] | +++ (Cisplatin sensitization value of <0.02 μM) |
| Nc1nn2cc(F)cnc2c1C(=O)Nc1cncc(F)c1N1CCN(C(=O)C2CNCCO2)CC1 (stereo not drawn) [I-N-172, 2-amino-6-fluoro-N-(5-fluoro-4-(4-(morpholine-2-carbonyl)piperazin-1-yl)pyridin-3-yl)pyrazolo[1,5-a]pyrimidine-3-carboxamide] | +++ (Cisplatin sensitization value of <0.02 μM) |
| COCCN(C)C(=O)C1CCN(c2c(F)cncc2NC(=O)c2c(N)nn3cc(F)cnc23)CC1 [I-G-40, 2-amino-6-fluoro-N-(5-fluoro-4-(4-((2-methoxyethyl)(methyl)carbamoyl)piperidin-1-yl)pyridin-3-yl)pyrazolo[1,5-a]pyrimidine-3-carboxamide] | +++ (Cisplatin sensitization value of <0.02 μM) |
| N#CCc1cnc2c(C(=O)Nc3cnccc3OC3CCC3)c(N)nn2c1 [I-O-36, 2-amino-6-(cyanomethyl)-N-(4-cyclobutoxypyridin-3-yl)pyrazolo[1,5-a]pyrimidine-3-carboxamide] | +++ (Cisplatin sensitization value of <0.02 μM) |
| COC1CCN(c2ccncc2NC(=O)c2c(N)nn3cc(Cl)cnc23)CC1 [I-N-73, 2-amino-6-chloro-N-(4-(4-methoxypiperidin-1-yl)pyridin-3-yl)pyrazolo[1,5-a]pyrimidine-3-carboxamide] | +++ (Cisplatin sensitization value of <0.02 μM) |
| CC1CN(c2ccncc2NC(=O)c2c(N)nn3cc(Cl)cnc23)CCN1C (stereo not drawn) [I-N-54, 2-amino-6-chloro-N-(4-(3,4-dimethylpiperazin-1-yl)pyridin-3-yl)pyrazolo[1,5-a]pyrimidine-3-carboxamide] | +++ (Cisplatin sensitization value of <0.02 μM) |
| Nc1nn2cc(F)cnc2c1C(=O)Nc1cncc(F)c1N1CCN2CCOC[C@@H]2C1 [I-N-137, (S)-2-amino-6-fluoro-N-(5-fluoro-4-(hexahydropyrazino[2,1-c][1,4]oxazin-8(1H)-yl)pyridin-3-yl)pyrazolo[1,5-a]pyrimidine-3-carboxamide] | ++ (Cisplatin sensitization value>0.02 μM but <0.2 μM) |
| CN(C)C(=O)C1CN(c2ccncc2NC(=O)c2c(N)nn3cc(F)cnc23)CCO1 (stereo not drawn) [I-N-234, 4-(3-(2-amino-6-fluoropyrazolo[1,5-a]pyrimidine-3-carboxamido)pyridin-4-yl)-N,N-dimethylmorpholine-2-carboxamide] | + (Cisplatin sensitization value>0.2 μM but <5 μM) |
| Nc1nn2cc(F)cnc2c1C(=O)Nc1cncc(F)c1N1CCNCC1 [I-N-118, 2-amino-6-fluoro-N-(5-fluoro-4-(piperazin-1-yl)pyridin-3-yl)pyrazolo[1,5-a]pyrimidine-3-carboxamide] | +++ (Cisplatin sensitization value of <0.02 μM) |
| Cc1ncc(-c2ccncc2NC(=O)c2c(N)nn3cc(F)cnc23)n1C [I-C-77, 2-amino-N-(4-(1,2-dimethyl-1H-imidazol-5-yl)pyridin-3-yl)-6-fluoropyrazolo[1,5-a]pyrimidine-3-carboxamide] | +++ (Cisplatin sensitization value of <0.02 μM) |
| N#CCc1cnc2c(C(=O)Nc3cnccc3OCCCO)c(N)nn2c1 [I-O-40, 2-amino-6-(cyanomethyl)-N-(4-(3-hydroxypropoxy)pyridin-3-yl)pyrazolo[1,5-a]pyrimidine-3-carboxamide] | ++ (Cisplatin sensitization value>0.02 μM but <0.2 μM) |
| CN1CCC[C@@H]1C(=O)N1CCN(c2ccncc2NC(=O)c2c(N)nn3cc(F)cnc23)CC1 [I-N-199, (R)-2-amino-6-fluoro-N-(4-(4-(1-methylpyrrolidine-2-carbonyl)piperazin-1-yl)pyridin-3-yl)pyrazolo[1,5-a]pyrimidine-3-carboxamide] | +++ (Cisplatin sensitization value of <0.02 μM) |
| Nc1nn2cc(F)cnc2c1C(=O)Nc1cnccc1N1CCC(S(=O)(=O)C2COC2)CC1 [I-N-200, 2-amino-6-fluoro-N-(4-(4-(oxetan-3-ylsulfonyl)piperidin-1-yl)pyridin-3-yl)pyrazolo[1,5-a]pyrimidine-3-carboxamide] | +++ (Cisplatin sensitization value of <0.02 μM) |
| COCCN1CCN(c2ccncc2NC(=O)c2c(N)nn3cc(Cl)cnc23)CC1 [I-N-60, 2-amino-6-chloro-N-(4-(4-(2-methoxyethyl)piperazin-1-yl)pyridin-3-yl)pyrazolo[1,5-a]pyrimidine-3-carboxamide] | +++ (Cisplatin sensitization value of <0.02 μM) |
| N#CCc1cnc2c(C(=O)Nc3cnccc3OC3CCCCC3)c(N)nn2c1 [I-O-39, 2-amino-6-(cyanomethyl)-N-(4-(cyclohexyloxy)pyridin-3-yl)pyrazolo[1,5-a]pyrimidine-3-carboxamide] | +++ (Cisplatin sensitization value of <0.02 μM) |
| Nc1nn2cc(F)cnc2c1C(=O)Nc1cnccc1OC1CCN(C2COC2)CC1 [Compound I-0-11, 2-amino-6-fluoro-N-(4-((1-(oxetan-3-yl)piperidin-4-yl)oxy)pyridin-3-yl)pyrazolo[1,5-a]pyrimidine-3-carboxamide] | +++ (Cisplatin sensitization value of <0.02 μM) |
| Nc1nn2cc(F)cnc2c1C(=O)Nc1cncc(F)c1N1CCC(C(=O)N2CCN3CCCC3C2)CC1 (stereo not drawn) [I-G-10, 2-amino-6-fluoro-N-(5-fluoro-4-(4-(octahydropyrrolo[1,2-a]pyrazine-2-carbonyl)piperidin-1-yl)pyridin-3-yl)pyrazolo[1,5-a]pyrimidine-3-carboxamide] | +++ (Cisplatin sensitization value of <0.02 μM) |
| Nc1nn2cc(F)cnc2c1C(=O)Nc1cnccc1N1CCN(C(=O)C2COC2)CC1 [I-N-249] | +++ (Cisplatin sensitization value of <0.02 μM) |
| CN(C)C1CN(C(=O)C2CCN(c3c(F)cncc3NC(=O)c3c(N)nn4cc(F)cnc34)CC2)C1 [I-G-22, 2-amino-N-(4-(4-(3-(dimethylamino)azetidine-1-carbonyl)piperidin-1-yl)-5-fluoropyridin-3-yl)-6-fluoropyrazolo[1,5-a]pyrimidine-3-carboxamide] | +++ (Cisplatin sensitization value of <0.02 μM) |
| COCCS(=O)(=O)C1CCN(c2ccncc2NC(=O)c2c(N)nn3cc(F)cnc23)CC1 [I-N-208, 2-amino-6-fluoro-N-(4-(4-((2-methoxyethyl)sulfonyl)piperidin-1-yl)pyridin-3-yl)pyrazolo[1,5-a]pyrimidine-3-carboxamide] | +++ (Cisplatin sensitization value of <0.02 μM) |
| Nc1nn2cc(F)cnc2c1C(=O)Nc1cnccc1-c1ccc(C(=O)N2CCN3CCC2CC3)cc1 [I-C-48, N-(4-(4-(1,4-diazabicyclo[3.2.2]nonane-4-carbonyl)phenyl)pyridin-3-yl)-2-amino-6-fluoropyrazolo[1,5-a]pyrimidine-3-carboxamide] | +++ (Cisplatin sensitization value of <0.02 μM) |
| Nc1nn2cc(Cl)cnc2c1C(=O)Nc1cnccc1OC1CC2(CNC2)C1 [I-O-72, N-(4-(2-azaspiro[3.3]heptan-6-yloxy)pyridin-3-yl)-2-amino-6-chloropyrazolo[1,5-a]pyrimidine-3-carboxamide] | + (Cisplatin sensitization value>0.2 μM but <5 μM) |
| COC1(C)CN(C(=O)C2CCN(c3c(F)cncc3NC(=O)c3c(N)nn4cc(F)cnc34)CC2)C1 [I-G-75, 2-amino-6-fluoro-N-(5-fluoro-4-(4-(3-methoxy-3-methylazetidine-1-carbonyl)piperidin-1-yl)pyridin-3-yl)pyrazolo[1,5-a]pyrimidine-3-carboxamide] | +++ (Cisplatin sensitization value of <0.02 μM) |
| CS(=O)(=O)C1CCN(c2c(F)cncc2NC(=O)c2c(N)nn3cc(F)cnc23)CC1 [I-N-165, 2-amino-6-fluoro-N-(5-fluoro-4-(4-(methylsulfonyl)piperidin-1-yl)pyridin-3-yl)pyrazolo[1,5-a]pyrimidine-3-carboxamide] | +++ (Cisplatin sensitization value of <0.02 μM) |
| Nc1nn2cc(F)cnc2c1C(=O)Nc1cncc(F)c1N1CCN(C(=O)CN2CCCC2)CC1 [I-N-187, 2-amino-6-fluoro-N-(5-fluoro-4-(4-(2-(pyrrolidin-1-yl)acetyl)piperazin-1-yl)pyridin-3-yl)pyrazolo[1,5-a]pyrimidine-3-carboxamide] | +++ (Cisplatin sensitization value of <0.02 μM) |
